Structures can show the parent of a compound that is named as a salt.
Target: T1, CDK1/cyclinB1 (Homo sapiens, UniProt P06493)
T1 construct: made in house; host or cells: High Five insect cells (Trichoplusia ni), baculovirus coinfection
Experiment: Cyclin B1-CDK1 kinase inhibition test
Type: biochemical
Conditions: CDK1 tests (Example 13); recombinant cyclin B1/CDK1, substrate histone H1; read-out: CDK1/cyclinB1 IC50 value
Protocol: CDK4) were cloned by standard methods using RT-PCR, and cloned into a transfer vector (cyclin in pAcG2T made by Pharmingen, CDKs in p2Bac made by Invitrogen) for the baculovirus system. […] After thawing the cells were resuspended in lysing buffer (50 mM HEPES pH 7.5, 10 mM MgCl2, 1 mM DTT, 5 μg/ml leupeptin, 5 μg/ml aprotinin, 100 μM NaF, 100 μM PMSF, 10 mM β-glycerolphosphate, 100 μM Na3VO4, 30 mM nitrophenylphosphate, 17.5 ml of lysing buffer per 10^8 cells) and incubated on ice for 30 min. […] Cyclin D1-CDK4 was purified by means of a GST-tag on cyclin D1 and then using glutathione beads (total protein about 0.2 mg/ml). All the kinase tests were carried out in 96-well microtitre plates (Greiner PS) in a final volume of 60 μl. […] As a negative control the kinase reaction was carried out in the absence of the substrate histone H1. As a positive control the kinase reaction was carried out in the absence of a test substance. As an internal control 30 μM and 300 μM (final concentration) of the kinase inhibitor olomoucin (Alexis) were used. […] The kinase reaction is started by the addition of 10 μl of ATP mix (0.045 mM ATP, 0.5 μCi ^33P-ATP in kinase buffer) and incubated for 30 min at 30° C. and 600 rpm in a shaking incubator. After incubation the plates were placed on ice and the proteins were precipitated by the addition of 125 μl of ice-cold 5% trichloroacetic acid. After 15 min on ice the precipitates were transferred onto Packard Unifilter 96 GF/B plates with the Packard Harvester System, and collected by vacuum filtration. The precipitates were washed 4 times with dist. H2O at ambient temperature. The filter plates were then dried at 60° C. and 50 μl of scintillation liquid were added to each well (Ultima Gold, Packard). The plate was sealed up with Sealing Tape and after 1 h measured in a scintillation measuring apparatus (Micro Beta made by Wallac).

T1 sequence (P06493 whole entry): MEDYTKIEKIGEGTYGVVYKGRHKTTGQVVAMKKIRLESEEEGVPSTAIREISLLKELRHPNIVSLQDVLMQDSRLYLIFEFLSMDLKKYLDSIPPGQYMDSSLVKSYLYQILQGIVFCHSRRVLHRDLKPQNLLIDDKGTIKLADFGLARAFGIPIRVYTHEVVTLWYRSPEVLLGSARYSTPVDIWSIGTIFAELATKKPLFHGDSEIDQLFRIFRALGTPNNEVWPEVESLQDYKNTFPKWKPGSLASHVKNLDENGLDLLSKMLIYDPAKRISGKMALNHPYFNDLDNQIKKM
T1 sequence (P14635 whole entry partner): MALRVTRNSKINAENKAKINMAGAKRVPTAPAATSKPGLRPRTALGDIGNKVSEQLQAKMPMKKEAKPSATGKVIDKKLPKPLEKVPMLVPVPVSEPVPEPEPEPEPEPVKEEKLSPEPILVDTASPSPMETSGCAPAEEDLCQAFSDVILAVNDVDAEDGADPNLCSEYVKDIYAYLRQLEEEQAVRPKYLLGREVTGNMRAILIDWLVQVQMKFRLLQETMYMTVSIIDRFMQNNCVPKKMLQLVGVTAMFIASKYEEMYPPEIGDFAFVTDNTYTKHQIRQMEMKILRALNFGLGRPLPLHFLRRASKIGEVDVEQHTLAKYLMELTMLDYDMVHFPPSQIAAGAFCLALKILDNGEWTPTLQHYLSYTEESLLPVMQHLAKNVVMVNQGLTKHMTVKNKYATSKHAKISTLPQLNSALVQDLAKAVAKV

IC50, < 100 nM:
CC(=O)N(C)CCN(C)c1nc(Nc2ccc(S(=O)(=O)N(C)C)cc2)ncc1C(F)(F)F [Example 1(690), N-(2-{[2-(4-dimethylsulphamoyl-phenylamino)-5-trifluoromethyl-pyrimidin-4-yl]-methyl-amino}-ethyl)-N-methyl-acetamide]
O=[N+]([O-])c1cnc(Nc2ccc(Cl)cc2)nc1N1CCc2[nH]cnc2C1 [Example 1(010), 2-(4-chlorophenylamino)-4-(1,4,6,7-tetrahydro-imidazo[4,5-c]pyridin-5-yl)-5-nitro-pyrimidine]
CN(C)S(=O)(=O)c1ccc(Nc2ncc(C(F)(F)F)c(NCCN3CCCC3=O)n2)cc1 [Example 1(683), N,N-dimethyl-4-{4-[2-(2-oxo-pyrrolidin-1-yl)-ethylamino]-5-trifluoromethyl-pyrimidin-2-ylamino}-phenylsulphonamide]
Brc1cnc(Nc2ccc3cn[nH]c3c2)nc1N1CCc2[nH]cnc2C1 [Example 2(142), [5-Bromo-4-(1,4,6,7-tetrahydro-imidazo[4,5-c]pyridin-5-yl)-pyrimidin-2-yl]-(1H-indazol-6-yl)-amine]
CN(C)S(=O)(=O)c1ccc(Nc2ncc(C(F)(F)F)c(NCCCN3CCCC3=O)n2)cc1 [Example 2(041), N,N-Dimethyl-4-{4-[3-(2-oxo-pyrrolidin-1-yl)-propylamino]-5-trifluoromethyl-pyrimidin-2-ylamino}-phenylsulphonamide]
NCCNc1nc(Nc2ccc(Cl)c(Cl)c2)ncc1C(F)(F)F [Example 1(080), 2-(3,4-dichloro-phenylamino)-4-(2-amino-1-ethylamino)-5-trifluoromethyl-pyrimidine]
NCCCCCNc1nc(Nc2ccc(Cl)cc2)ncc1C(F)(F)F [Example 1(079), 2-(4-chloro-phenylamino)-4-(5-amino-pentyl-1-amino)-5-trifluoromethyl-pyrimidine]
FC(F)(F)c1cnc(Nc2cc(Cl)cc(Cl)c2)nc1N1CCc2[nH]cnc2C1 [Example 1(014), 2-(3,5-dichlorophenylamino)-4-(1,4,6,7-tetrahydro-imidazo[4,5-c]pyridin-5-yl)-5-trifluoromethyl-pyrimidine]
NCC1CCC(CNc2nc(Nc3cccc(Br)c3)ncc2C(F)(F)F)CC1 (centres unmarked) [Example 1(088), 2-(3-bromo-phenylamino)-4-(4-aminomethyl-cyclohexylmethylamino)-5-trifluoromethyl-pyrimidine]
CC(=O)NCCNc1nc(Nc2cc(Cl)cc(Cl)c2)ncc1C(F)(F)F [Example 2(015), 2-(3,5-Dichloro-phenylamino)-4-(2-acetylamino-ethylamino)-5-trifluoromethyl-pyrimidine]
COCC(=O)NCCCNc1nc(Nc2ccc(C(N)=O)cc2)ncc1C(F)(F)F [Example 7(028), 4-[4-(3-(2-methoxy-acetamino)-propylamino)-5-trifluoromethyl-pyrimidin-2-ylamino]-benzamide]
Brc1cnc(Nc2ccc3cn[nH]c3c2)nc1N1CCc2nc[nH]c2CC1 [Example 2(141), [5-Bromo-4-(4,5,7,8-tetrahydro-1H-imidazo[4,5-d]azepin-6-yl)-pyrimidin-2-yl]-(1H-indazol-6-yl)-amine]
NCC1CCC(CNc2nc(Nc3ccccc3)ncc2C(F)(F)F)CC1 (centres unmarked) [Example 1(033), 2-phenylamino-4-(4-aminomethyl-cyclohexylmethylamino)-5-trifluoromethyl-pyrimidine]
CN(C)S(=O)(=O)c1ccc(Nc2ncc(Cl)c(N3CCc4[nH]cnc4C3)n2)cc1 [Example 2(136), 4-[5-Chloro-4-(1,4,6,7-tetrahydro-imidazo[4,5-c]pyridin-5-yl)-pyrimidin-2-ylamino]-N,N-dimethyl-phenylsulphonamide]
O=S(=O)(c1ccc(Nc2ncc(C(F)(F)F)c(N3CCc4nc[nH]c4C3)n2)cc1)N1CCOCC1 [Example 1(695), [4-(Morpholin-4-sulphonyl)-phenyl]-[4-(3,4,6,7-tetrahydro-imidazo[4,5-5]pyridin-5-yl)-5-trifluoromethyl-pyrimidin-2-yl]-amine]
CC(=O)NCCNc1nc(Nc2ccc(S(=O)(=O)N(C)C)cc2)ncc1Br [Example 1(652), N-{2-[5-Bromo-2-(4-dimethylsulphamoyl-phenylamino)-pyrimidin-4-ylamino]-ethyl}-acetamide]
CC(=O)NCCNc1nc(Nc2ccc3[nH]nnc3c2)ncc1C(F)(F)F [Example 2(042), N-{2-[2-(1H-Benzotriazol-5-ylamino)-5-trifluoromethyl-pyrimidin-4-ylamino]-ethyl}-acetamide]
O=[N+]([O-])c1cnc(Nc2cccc(Br)c2)nc1N1CCc2[nH]cnc2C1 [Example 1(119), 2-(3-bromophenylamino)-4-(1,4,6,7-tetrahydro-imidazo[4,5-c]pyridin-5-yl)-5-nitro-pyrimidine]
COCC(=O)NCCCNc1nc(Nc2ccc3cnn(C)c3c2)ncc1C(F)(F)F [Example 7(013), 2-methoxy-N-{3-[2-(1-methyl-1H-indazol-6-ylamino)-5-trifluoromethyl-pyrimidin-4-ylamino]-propyl}-acetamide]
CC(=O)NCCNc1nc(Nc2ccc(N)cc2)ncc1C(F)(F)F [Example 2(004), N-{2-[2-(4-amino-phenylamino)-5-trifluoromethyl-pyrimidin-4-ylamino]-ethyl}-acetamide]
O=C1CCCN1CCCNc1nc(Nc2ccc(Cl)c(Cl)c2)ncc1C(F)(F)F [Example 1(041), 2-(3,4-dichloro-phenylamino)-4-(3-(2-oxo-pyrrolidin-1-yl)-propyl-1-amino)-5-trifluoromethyl-pyrimidine]
CC(=O)NCCNc1nc(Nc2ccc(C(N)=O)cc2)ncc1Br [Example 1(663), 4-[4-(2-acetylamino-ethylamino)-5-bromo-pyrimidin-2-ylamino]-benzamide]
CC(=O)NCCNc1nc(Nc2ccc(S(=O)(=O)N3CCCNCC3)cc2)ncc1C(F)(F)F [Example 2(060), N-(2-{2-[4-(Perhydro-1,4-diazepin-1-sulphonyl)-phenylamino]-5-trifluoromethyl-pyrimidin-4-ylamino}-ethyl)-acetamide]
O=[N+]([O-])c1cccc(Nc2ncc([N+](=O)[O-])c(N3CCCC(CO)C3)n2)c1 (centres unmarked) [Example 1(050), 2-(3-nitro-phenylamino)-4-(3-hydroxymethyl-piperidin-1-yl)-5-nitro-pyrimidine]
CC(=O)NCCNc1nc(Nc2ccc3cnn(C)c3c2)ncc1C(F)(F)F [Example 1(654), N-{2-[2-(1-methyl-1H-indazol-6-ylamino)-5-trifluoromethyl-pyrimidin-4-ylamino]-ethyl}-acetamide]
CC(=O)NCCNc1nc(Nc2ccc(Cl)c(Cl)c2)ncc1Br [Example 2(002), 2-(3,4-dichlorophenylamino)-4-(2-acetylamino-ethylamino)-5-bromo-pyrimidine-hydrochloride]
O[C@H]1CC[C@@H](Nc2nc(Nc3ccc(Cl)c(Cl)c3)ncc2C(F)(F)F)CC1 [Example 1(037), 2-(3,4-dichloro-phenylamino)-4-(cis-4-hydroxy-cyclohexylamino)-5-trifluoromethyl-pyrimidine]
COc1cc(C(O)CNc2nc(Nc3ccc(Cl)c(Cl)c3)ncc2C(F)(F)F)ccc1O (centres unmarked) [Example 1(053), 2-(3,4-dichloro-phenylamino)-4-(2-(4-hydroxy-3-methoxy-phenyl)-2-hydroxy-1-ethylamino)-5-trifluoromethyl-pyrimidine]
CCC(=O)NCCCNc1nc(Nc2ccc3cnn(C)c3c2)ncc1C(F)(F)F [Example 7(006), N-{3-[2-(1-methyl-1H-indazol-6-ylamino)-5-trifluoromethyl-pyrimidin-4-ylamino]-propyl}-propionamide]
CC(=O)NCCNc1nc(Nc2cccc(Cl)c2)ncc1C(F)(F)F [Example 2(009), 2-(3-chloro-phenylamino)-4-(2-acetylamino-ethylamino)-5-trifluoromethyl-pyrimidine]
O=[N+]([O-])c1cnc(Nc2ccc(F)c(Cl)c2)nc1N1CCc2[nH]cnc2C1 [Example 1(015), 2-(3-chloro-4-fluoro-phenylamino)-4-(1,4,6,7-tetrahydro-imidazo[4,5-c]pyridin-5-yl)-5-nitro-pyrimidine]
O=[N+]([O-])c1ccccc1CNc1nc(Nc2ccc(Cl)c(Cl)c2)ncc1C(F)(F)F [Example 1(016), 2-(3,4-dichloro-phenylamino)-4-(2-nitrobenzylamino)-5-trifluoromethyl-pyrimidine]
